According to patent US11208422B2, “Substituted bridged diazepane derivatives and use thereof as TASK-1 and TASK-3 inhibitors” (Bayer Pharma Aktiengesellschaft, priority 2017, dated 2021):

What was measured:
recombinant TASK-1 = recombinant TASK-1 (Homo sapiens (Human), UniProt O14649); experiment: Inhibition of recombinant TASK-1 in stably transfected CHO cells (KCl-induced depolarization, voltage-sensitive dye, FLIPR); format: cell-based; conditions: depolarization induced by 40 mM potassium chloride, some mean values from multiple determinations
Chain of recombinant TASK-1 (O14649 whole entry): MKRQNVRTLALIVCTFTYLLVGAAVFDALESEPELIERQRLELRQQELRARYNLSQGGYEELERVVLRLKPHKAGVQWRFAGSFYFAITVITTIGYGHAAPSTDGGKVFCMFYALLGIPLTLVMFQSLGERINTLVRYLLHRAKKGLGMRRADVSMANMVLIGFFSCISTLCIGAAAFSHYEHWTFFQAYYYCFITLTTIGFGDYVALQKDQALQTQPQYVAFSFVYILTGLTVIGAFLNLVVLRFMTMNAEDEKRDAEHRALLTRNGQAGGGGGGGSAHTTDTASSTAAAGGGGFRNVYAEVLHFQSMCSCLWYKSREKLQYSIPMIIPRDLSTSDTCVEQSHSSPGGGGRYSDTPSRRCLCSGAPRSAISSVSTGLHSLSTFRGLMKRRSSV
Description: (§1) The compounds of the invention were tested here with administration of 40 mM of potassium chloride in the presence of a voltage-sensitive dye using the method described in detail in the following references [Whiteaker et al., Validation of FLIPR membrane potential dye for high-throughput screening of potassium channel modulators, J. Biomol. Screen. 6 (5), 305-312 (2001); Molecular Devices FLIPR Application Note: Measuring membrane potential using the FLIPR® membrane potential assay kit on Fluorometric Imaging Plate Reader (FLIPR®) systems, http://www.moleculardevices.com/reagents-supplies/assay-kits/ion-channels/flipr-membrane-potential-assay-kits]. The activity of the test substances was determined as their ability to inhibit a depolarization induced in the recombinant cells by 40 mM potassium chloride. The concentration which can block half of this depolarization is referred to as IC50.

recombinant TASK-3 = recombinant TASK-3 (Homo sapiens (Human), UniProt Q9NPC2); experiment: Inhibition of recombinant TASK-3 in stably transfected CHO cells (KCl-induced depolarization, voltage-sensitive dye, FLIPR); format: cell-based; conditions: depolarization induced by 40 mM potassium chloride, some mean values from multiple determinations
Chain of recombinant TASK-3 (Q9NPC2 whole entry): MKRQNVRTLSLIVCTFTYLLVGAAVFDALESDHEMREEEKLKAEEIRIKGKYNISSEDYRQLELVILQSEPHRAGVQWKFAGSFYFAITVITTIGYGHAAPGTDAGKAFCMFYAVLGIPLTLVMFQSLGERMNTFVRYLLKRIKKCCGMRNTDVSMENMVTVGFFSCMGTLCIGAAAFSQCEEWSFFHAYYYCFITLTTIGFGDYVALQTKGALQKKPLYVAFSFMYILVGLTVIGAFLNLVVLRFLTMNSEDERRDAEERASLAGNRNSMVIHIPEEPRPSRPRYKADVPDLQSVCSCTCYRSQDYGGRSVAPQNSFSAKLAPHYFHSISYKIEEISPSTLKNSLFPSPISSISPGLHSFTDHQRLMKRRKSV
Description: as §1

Row | SMILES | IC50 (recombinant TASK-1) [nM] | IC50 (recombinant TASK-3) [nM]
1 | O=C(c1ccccc1F)N1C2CCC1CN(Cc1c(-c3ccc(Cl)cc3)nc3ncccn13)CC2 (single isomer, unassigned; (-)) [Example 81, (−)-[3-{[2-(4-chlorophenyl)imidazo[1,2-a]pyrimidin-3-yl]methyl}-3,9-diazabicyclo[4.2.1]non-9-yl](2-fluorophenyl)methanone] | 590 | 9.2
2 | O=C(c1ccccc1F)N1CCC2CCC1CN2Cc1c(-c2ccc(Cl)cn2)nc2ncccn12 (stereo not drawn) [Example 31] | 910 | 47
3 | COc1cccc(C(=O)N2C3CCC2CN(Cc2c(-c4ccc(Cl)cc4)nc4ccccn24)CC3)n1 (single isomer, unassigned) [Example 91, [3-{[2-(4-Chlorophenyl)imidazo[1,2-a]pyridin-3-yl]methyl}-3,9-diazabicyclo[4.2.1]non-9-yl](6-methoxypyridin-2-yl)methanone] | 290 | 5.5
4 | COc1ccc(Cl)c(C(=O)N2CCC3CCC(C2)N3Cc2c(-c3ccc(C(C)C)cc3)nc3ncccn23)n1 (stereo not drawn) [Example 59] | 1100 | 680
5 | Nc1nonc1C(=O)N1CCC2CCC1CN2Cc1c(-c2ccc(Cl)cc2)nc2ccccn12 (stereo not drawn) [Example 40] | 3300 | 29
6 | COc1ccc(F)c(C(=O)N2C3CCC2CN(Cc2c(-c4ccc(Cl)cn4)nc4ccccn24)CC3)n1 (single isomer, unassigned) [Example 16, [3-{[2-(5-Chloropyridin-2-yl)imidazo[1,2-a]pyridin-3-yl]methyl}-3,9-diazabicyclo[4.2.1]non-9-yl](3-fluoro-6-methoxypyridin-2-yl)methanone] | 1700 | 65
7 | O=C(c1cccc(OC(F)F)n1)N1CCC2CCC1CN2Cc1c(-c2ccc(Cl)cc2)nc2ncccn12 (stereo not drawn) [Example 67] | 3400 | 370
8 | COc1ccc(Cl)c(C(=O)N2CCC3CCC2CN3Cc2c(-c3ccc(Cl)cn3)nc3ccccn23)n1 (stereo not drawn) [Example 20] | 3350 | 197
9 | COc1ccc(F)c(C(=O)N2CCC3CCC2CN3Cc2c(-c3ccc(Cl)cc3)nc3ncccn23)n1 (stereo not drawn) [Example 33] | 2600 | 110
10 | Nc1nonc1C(=O)N1CCC2CCC1CN2Cc1c(-c2ccc(Cl)cc2)nc2ccccn12 (stereo not drawn) [Example 29] | 660 | 4.4
11 | COc1ccc(F)c(C(=O)N2C3CCC2CN(Cc2c(-c4ccc(Cl)cc4)nc4ncccn24)CC3)n1 (single isomer, unassigned) [Example 82, [3-{[2-(4-chlorophenyl)imidazo[1,2-a]pyrimidin-3-yl]methyl}-3,9-diazabicyclo[4.2.1]non-9-yl](3-fluoro-6-methoxypyridin-2-yl)methanone] | 30 | 1.4
12 | O=C(c1ccccc1F)N1CCC2CCC1CN2Cc1c(-c2ccc(Cl)cc2)nc2ncccn12 (stereo not drawn) [Example 25] | 1100 | 11
13 | COc1ccc(F)c(C(=O)N2C3CCC2CN(Cc2c(-c4ccc(Cl)cc4)nc4ccccn24)CC3)n1 (single isomer, unassigned) [Example 78, [3-{[2-(4-chlorophenyl)imidazo[1,2-a]pyridin-3-yl]methyl}-3,9-diazabicyclo[4.2.1]non-9-yl](3-fluoro-6-methoxypyridin-2-yl)methanone] | 220 | 5
14 | COc1cccc(C(=O)N2C3CCC2CN(Cc2c(-c4ccc(C(C)C)cc4)nc4ncccn24)CC3)n1 (stereo not drawn) [Example 105] | 3700 | 370
15 | COc1cccc(C(=O)N2C3CCN(Cc4c(-c5ccc(Cl)cc5)nc5ncccn45)CC2COC3)n1 (racemic) [Example 75, [3-{[2-(4-chlorophenyl)imidazo[1,2-a]pyrimidin-3-yl]methyl}-8-oxa-3,10-diazabicyclo[4.3.1]dec-10-yl](6-methoxypyridin-2-yl)methanone] | 2300 | 77
16 | CC(C)c1ccc(-c2nc3ncccn3c2CN2CC3CCC2CCN3C(=O)c2ccccc2F)cc1 (stereo not drawn) [Example 47] | 3100 | 180
17 | O=C(c1ccccc1F)N1C2CCN(Cc3c(-c4ccc(Cl)cc4)nc4ccccn34)CC1COC2 (racemic) [Example 71, (3-{[2-(4-chlorophenyl)imidazo[1,2-a]pyridin-3-yl]methyl}-8-oxa-3,10-diazabicyclo[4.3.1]dec-10-yl](2-fluorophenyl)methanone] | 740 | 31
18 | COc1cccc(C(=O)N2CCC3CCC(C2)N3Cc2c(-c3ccc(C(C)C)cc3)nc3ncccn23)n1 (stereo not drawn) [Example 55] | 4000 | 1000
19 | COc1ccc(Cl)c(C(=O)N2CCC3CCC2CN3Cc2c(-c3ccc(Cl)cc3)nc3ccccn23)n1 (stereo not drawn) [Example 39] | 370 | 13
20 | COc1ccc(Cl)c(C(=O)N2C3CCC2CN(Cc2c(-c4ccc(Cl)cc4)nc4ncccn24)CC3)n1 (racemic) [Example 99, (3-chloro-6-methoxypyridin-2-yl)(3-{[2-(4-chlorophenyl)imidazo[1,2-a]pyrimidin-3-yl]methyl}-3,9-diazabicyclo[4.2.1]non-9-yl)methanone] | 290 | 34

Row | SMILES | IC50 (recombinant TASK-1) [nM] | IC50 (recombinant TASK-3) [nM]
21 | Nc1nonc1C(=O)N1CCC2CCC1CN2Cc1c(-c2ccc(Cl)cc2)nc2ncccn12 (stereo not drawn) [Example 24] | 3100 | 24
22 | COc1ccc(F)c(C(=O)N2C3CCC2CN(Cc2c(-c4ccc(C(C)C)cc4)nc4ncccn24)CC3)n1 (stereo not drawn) [Example 103] | 1400 | 200
23 | CC(C)c1ccc(-c2nc3ncccn3c2CN2C3CCC2CN(C(=O)C2CCCC2)CC3)cc1 (stereo not drawn) [Example 57] | 6200 | 2000
24 | COc1cccc(C(=O)N2CCC3CCC2CN3Cc2c(-c3ccc(C(C)C)cc3)nc3ncccn23)n1 (stereo not drawn) [Example 48] | 12000 | 430
25 | COc1ccc(F)c(C(=O)N2CCC3CCC(C2)N3Cc2c(-c3ccc(C(C)C)cc3)nc3ncccn23)n1 (stereo not drawn) [Example 53] | 1300 | 380
26 | COc1ccc(Cl)c(C(=O)N2C3CCC2CN(Cc2c(-c4ccc(Cl)cn4)nc4ccccn24)CC3)n1 (racemic) [Example 100, (3-chloro-6-methoxypyridin-2-yl)(3-{[2-(5-chloropyridin-2-yl)imidazo[1,2-a]pyridin-3-yl]methyl}-3,9-diazabicyclo[4.2.1]non-9-yl)methanone] | 370 | 42
27 | CC(C)c1ccc(-c2nc3ncccn3c2CN2CC3CCC2CCN3C(=O)C2CCCC2)cc1 (stereo not drawn) [Example 52] | 3800 | 140
28 | COc1cccc(C(=O)N2C3CCC2CN(Cc2c(-c4ccc(Cl)cc4)nc4ncccn24)CC3)n1 (single isomer, unassigned) [Example 87, [3-{[2-(4-chlorophenyl)imidazo[1,2-a]pyrimidin-3-yl]methyl}-3,9-diazabicyclo[4.2.1]non-9-yl](6-methoxypyridin-2-yl)methanone] | 1600 | 210
29 | Nc1nonc1C(=O)N1C2CCN(Cc3c(-c4ccc(Cl)cc4)nc4ncccn34)CC1COC2 (racemic) [Example 77, (4-amino-1,2,5-oxadiazo1-3-yl)[3-{[2-(4-chlorophenyl)imidazo[1,2-a]pyrimidin-3-yl]methyl}-8-oxa-3,10-diazabicyclo[4.3.1]dec-10-yl]methanone] | 3300 | 270
30 | COc1cccc(C(=O)N2C3CCN(Cc4c(-c5ccc(Cl)cc5)nc5ccccn45)CC2COC3)n1 (racemic) [Example 72, [3-{[2-(4-chlorophenyl)imidazo[1,2-a]pyridin-3-yl]methyl}-8-oxa-3,10-diazabicyclo[4.3.1]dec-10-yl](6-methoxypyridin-2-yl)methanone] | 120 | 5.1
31 | CC(C)c1ccc(-c2nc3ncccn3c2CN2C3CCC2CN(C(=O)c2cccc(OC(F)F)n2)CC3)cc1 (stereo not drawn) [Example 56] | 8500 | 1000
32 | CC(C)c1ccc(-c2nc3ncccn3c2CN2C3CCC2CN(C(=O)c2ccccc2F)CC3)cc1 (stereo not drawn) [Example 63] | 8400 | 800
33 | COc1ccc(F)c(C(=O)N2CCC3CCC2CN3Cc2c(-c3ccc(Cl)cc3)nc3ccccn23)n1 (stereo not drawn) [Example 38] | 250 | 4
34 | O=C(c1cccc(OC(F)F)n1)N1CCC2CCC1CN2Cc1c(-c2ccc(Cl)cc2)nc2ncccn12 (stereo not drawn) [Example 68] | 230 | 31
35 | COc1ccc(F)c(C(=O)N2C3CCC2CN(Cc2c(-c4ccc(Cl)cc4)nc4ncccn24)CC3)n1 (single isomer, unassigned) [Example 83, [3-{[2-(4-chlorophenyl)imidazo[1,2-a]pyrimidin-3-yl]methyl}-3,9-diazabicyclo[4.2.1]non-9-yl](3-fluoro-6-methoxypyridin-2-yl)methanone] | 410 | 17
36 | COc1ccc(Cl)c(C(=O)N2CCC3CCC2CN3Cc2c(-c3ccc(C(C)C)cc3)nc3ncccn23)n1 (stereo not drawn) [Example 43] | 2500 | 250
37 | O=C(c1cccc(OC(F)(F)F)n1)N1CCC2CCC1CN2Cc1c(-c2ccc(Cl)cc2)nc2ncccn12 (stereo not drawn) [Example 65] | 1400 | 220
38 | CC(C)c1ccc(-c2nc3ncccn3c2CN2CC3CCC2CCN3C(=O)c2cccc(OC(F)F)n2)cc1 (stereo not drawn) [Example 51] | 1100 | 110
39 | COc1ccc(Cl)c(C(=O)N2CCC3CCC2CN3Cc2c(-c3ccc(Cl)cc3)nc3ncccn23)n1 (stereo not drawn) [Example 34] | 4100 | 200
